# Measurements published in patent US20250163104A1, “MACROCYCLIC IMMUNOMODULATORS” (priority 2021, published 2025).
# Where a SMILES comes first, the peptide text is derived from it. Bridges are numbered along the chain shown (N, C = ends). [ ]: non-standard residue; d: D form. The star is where a group is joined. Phe(4-COOH) = N[C@@H](Cc1ccc(C(=O)O)cc1)C(=O)O; Bip = N[C@@H](Cc1ccc(-c2ccccc2)cc1)C(=O)O; Phe(3-Me) = Cc1cccc(C[C@H](N)C(=O)O)c1; 4Pal = N[C@@H](Cc1ccncc1)C(=O)O; Cha = N[C@@H](CC1CCCCC1)C(=O)O; Cit = NC(=O)NCCC[C@H](N)C(=O)O; Hpra = C#CCC[C@H](N)C(=O)O; Carboxymethyl = O=C(O)C*; Orn = NCCC[C@H](N)C(=O)O; Pra = C#CC[C@H](N)C(=O)O; Dab = NCC[C@H](N)C(=O)O; Dap = NC[C@H](N)C(=O)O
# Biological target: T1, human PD-1 / PD-L1-Ig binding on Jurkat cell line over-expressing human PD-1 (Jurkat-PD-1) (Homo sapiens, UniProt Q15116)
# T1 construct: expressed in transfected cells; host or cells: Jurkat
# T1 sequence (Q15116 25-288): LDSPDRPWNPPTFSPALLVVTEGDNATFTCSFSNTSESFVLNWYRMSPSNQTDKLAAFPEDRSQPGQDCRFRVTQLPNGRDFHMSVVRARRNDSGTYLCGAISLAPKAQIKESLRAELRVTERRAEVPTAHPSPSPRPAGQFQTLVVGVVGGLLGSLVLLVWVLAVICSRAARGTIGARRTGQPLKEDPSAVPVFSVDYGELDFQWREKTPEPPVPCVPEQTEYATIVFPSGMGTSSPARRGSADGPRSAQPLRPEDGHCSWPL
# Test: Jurkat-PD-1 Cell Binding High-Content Screening Assay (CBA)
# Format: cell-based
# Conditions: Jurkat HPD1_PDL1 IC50, Jurkat-PD-1 cells, PE-labeled PD-L1-Ig 20 nM final
# How it was run: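 Jurkat cells over-expressing human PD-1, in DMEM/10% FCS, pre-incubated with compound 2 h at 37° C. PE-labeled human PD-L1-Ig (20 nM final) added for 1 h; cells fixed in paraformaldehyde with Hoechst 33342 nuclear stain, washed, and bound fluorescence quantified by high-content imaging.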
row,SMILES,IC50 [nM]
1,CC(C)C[C@H]1NC(=O)[C@H](CCCN)NC(=O)[C@H](CCCNC(N)=O)NC(=O)[C@H](Cc2ccc(-c3ccccc3)cc2)NC(=O)[C@H](C(C)C)NC(=O)[C@H](Cc2c[nH]c3ccccc23)NC(=O)[C@H](CC(=O)O)NC(=O)[C@H](Cc2ccc(OCC(=O)O)cc2)NC(=O)[C@H](Cc2ccc(OCC(=O)O)cc2)NC(=O)CSC[C@@H](C(=O)N[C@@H](C)C(N)=O)NC(=O)[C@H]([C@@H](C)O)NC(=O)[C@H](C(C)C)NC(=O)[C@H](CC2CCCCC2)NC(=O)[C@H](Cc2c[nH]cn2)NC1=O [Compound 1594],19.4
2,CC[C@H](C)[C@@H]1NC(=O)[C@H](Cc2ccc(-c3ccccc3)cc2)NC(=O)[C@H](C(C)C)NC(=O)[C@H](Cc2cccc(C(F)(F)F)c2)NC(=O)[C@H](CC(=O)O)NC(=O)[C@H](Cc2ccc(OCC(=O)O)cc2)NC(=O)[C@H](Cc2ccncc2)NC(=O)CSC[C@@H](C(=O)N[C@@H](C)C(N)=O)NC(=O)[C@H]([C@@H](C)O)NC(=O)[C@H](C(C)C)NC(=O)[C@H](CC2CCCCC2)NC(=O)[C@H](CCN)NC(=O)[C@@H](CC(C)C)NC(=O)[C@H](CCCN)NC1=O [Compound 1567],25.8

# Same assay, conditions: Jurkat-PD-1 cells, PE-labeled PD-L1-Ig 20 nM final; read-out: Jurkat HPD1_PDL1 IC50
row,SMILES,IC50 [nM]
1,CC(C)C[C@@H]1NC(=O)[C@H](Cc2c[nH]c3ccccc23)NC(=O)[C@H](CC(=O)O)NC(=O)[C@H](Cc2ccc(O)cc2)NC(=O)[C@H](Cc2ccccc2)NC(=O)CSC[C@@H](C(=O)NCC(N)=O)NC(=O)[C@H](CO)NC(=O)[C@H](C(C)C)NC(=O)[C@H](CC(C)C)NC(=O)[C@H](CC(N)=O)NC(=O)[C@@H](CC(C)C)NC(=O)[C@H](CCCN)NC(=O)[C@H](C(C)C)NC(=O)[C@H](Cc2ccc(-c3ccccc3)cc2)NC1=O [Compound 1067] ({CH2CO}-FYDWL[Bip]V[Orn][dL]NLVSCG-NH2; thioether N-14),22.2
2,CC(C)C[C@H]1NC(=O)[C@H](CCCN)NC(=O)[C@H](CN)NC(=O)[C@H](Cc2ccc(-c3ccccc3)cc2)NC(=O)[C@H](C(C)C)NC(=O)[C@H](Cc2c[nH]c3ccccc23)NC(=O)[C@H](CC(=O)O)NC(=O)[C@H](Cc2ccncc2)NC(=O)[C@H](CN)NC(=O)CSC[C@@H](C(=O)N[C@@H](C)C(N)=O)NC(=O)[C@H]([C@@H](C)O)NC(=O)[C@H](C(C)C)NC(=O)[C@H](CC2CCCCC2)NC(=O)[C@H](CCN)NC1=O [Compound 1388],26
3,CC(C)C[C@@H]1NC(=O)[C@H](CC(N)=O)NC(=O)[C@@H](CC(C)C)NC(=O)[C@H](CN)NC(=O)[C@H](C(C)C)NC(=O)[C@H](Cc2ccc(-c3ccccc3)cc2)NC(=O)[C@H](C(C)C)NC(=O)[C@H](Cc2c[nH]c3ccccc23)NC(=O)[C@H](CC(=O)O)NC(=O)[C@H](Cc2ccncc2)NC(=O)[C@H](Cc2ccc(OCC(=O)O)cc2)NC(=O)CSC[C@@H](C(=O)NCC(N)=O)NC(=O)[C@H](CO)NC(=O)[C@H](C(C)C)NC1=O [Compound 1290] ({CH2CO}-Y(Carboxymethyl)[4Pal]DWV[Bip]V[Dap][dL]NLVSCG-NH2; thioether N-14),50.6
4,Cc1cccc(C[C@@H]2NC(=O)[C@H](CC(=O)O)NC(=O)[C@H](Cc3ccc(OCC(=O)O)cc3)NC(=O)[C@H](CN)NC(=O)CSC[C@@H](C(=O)N[C@@H](C)C(=O)NCc3cnc(C)cn3)NC(=O)[C@H]([C@@H](C)O)NC(=O)[C@H](C(C)C)NC(=O)[C@H](CC3CCCCC3)NC(=O)[C@H](CCN)NC(=O)[C@@H](CC(C)C)NC(=O)[C@H](CCCN)NC(=O)[C@H](CCCNC(N)=O)NC(=O)[C@H](Cc3ccc(-c4ccccc4)cc3)NC(=O)[C@H](C(C)C)NC2=O)c1 [Compound 2006],14.8
5,CC(C)C[C@@H]1NC(=O)[C@H](CCN)NC(=O)[C@@H](CC(C)C)NC(=O)[C@H](CCCN)NC(=O)[C@H](CCCNC(N)=O)NC(=O)[C@H](Cc2ccc(-c3ccccc3)cc2)NC(=O)[C@H](C(C)C)NC(=O)[C@H](Cc2c[nH]c3ccccc23)NC(=O)[C@H](CC(=O)O)NC(=O)[C@H](Cc2ccc(OCC(=O)O)cc2)NC(=O)[C@H](CN)NC(=O)CSC[C@@H](C(=O)N[C@@H](C)C(N)=O)NC(=O)[C@H]([C@@H](C)O)NC(=O)[C@H](C(C)C)NC1=O [Compound 1241] ({CH2CO}-[Dap]Y(Carboxymethyl)DWV[Bip][Cit][Orn][dL][Dab]LVTCA-NH2; thioether N-14),27.8
6,CC(C)C[C@H]1NC(=O)[C@H](CCCN)NC(=O)[C@H](CCC(=O)O)NC(=O)[C@H](Cc2ccc(-c3ccccc3)cc2)NC(=O)[C@H](C(C)C)NC(=O)[C@H](Cc2c[nH]c3ccccc23)NC(=O)[C@H](CC(=O)O)NC(=O)[C@H](Cc2ccc(O)cc2)NC(=O)[C@H](CC(N)=O)NC(=O)CSC[C@@H](C(=O)N[C@@H](C)C(N)=O)NC(=O)[C@H]([C@@H](C)O)NC(=O)[C@H](C(C)C)NC(=O)[C@H](CC2CCCCC2)NC(=O)[C@H](CCN)NC1=O [Compound 1424] ({CH2CO}-NYDWV[Bip]E[Orn][dL][Dab][Cha]VTCA-NH2; thioether N-14),14.7
7,CC[C@H](C)[C@@H]1NC(=O)[C@H](Cc2ccc(-c3ccccc3)cc2)NC(=O)[C@H](C(C)C)NC(=O)[C@H](Cc2cccc(OC)c2)NC(=O)[C@H](CC(=O)O)NC(=O)[C@H](Cc2ccc(C(=O)O)cc2)NC(=O)[C@H](Cc2ccncc2)NC(=O)CSC[C@@H](C(=O)N[C@@H](C)C(N)=O)NC(=O)[C@H]([C@@H](C)O)NC(=O)[C@H](C(C)C)NC(=O)[C@H](CC(C)C)NC(=O)[C@H](CCN)NC(=O)[C@@H](CC(C)C)NC(=O)[C@H](CCCN)NC1=O [Compound 1181],12
8,CC(C)C[C@@H]1NC(=O)[C@H](CCN)NC(=O)[C@@H](CC(C)C)NC(=O)[C@H](CCCN)NC(=O)[C@H](C(C)C)NC(=O)[C@H](Cc2ccc(-c3ccccc3)cc2)NC(=O)[C@H](C(C)C)NC(=O)[C@H](Cc2c[nH]c3ccccc23)NC(=O)[C@H](CC(=O)O)NC(=O)[C@H](Cc2ccc(O)cc2)NC(=O)[C@H](CC(N)=O)NC(=O)CSC[C@@H](C(=O)N[C@@H](C)C(N)=O)NC(=O)[C@H](CO)NC(=O)[C@H](C(C)C)NC1=O [Compound 1127] ({CH2CO}-NYDWV[Bip]V[Orn][dL][Dab]LVSCA-NH2; thioether N-14),15
9,Cc1cccc(C[C@@H]2NC(=O)[C@H](CC(=O)O)NC(=O)[C@H](Cc3ccc(C(=O)O)cc3)NC(=O)[C@H](CN)NC(=O)CSC[C@@H](C(=O)N[C@@H](C)C(N)=O)NC(=O)[C@H]([C@@H](C)O)NC(=O)[C@H](C(C)C)NC(=O)[C@H](CC(C)C)NC(=O)[C@H](CCN)NC(=O)[C@@H](CC(C)C)NC(=O)[C@H](CCCN)NC(=O)[C@H](C(C)C)NC(=O)[C@H](Cc3ccc(-c4ccccc4)cc3)NC(=O)[C@H](C(C)C)NC2=O)c1 [Compound 1219] ({CH2CO}-[Dap][Phe(4-COOH)]D[Phe(3-Me)]V[Bip]V[Orn][dL][Dab]LVTCA-NH2; thioether N-14),5.4
10,CCC(C)[C@@H]1NC(=O)[C@H](Cc2ccc(-c3ccccc3)cc2)NC(=O)[C@H](C(C)C)NC(=O)[C@H](Cc2cc(C)ccc2C)NC(=O)[C@H](CC(=O)O)NC(=O)[C@H](Cc2ccc(OCC(=O)O)cc2)NC(=O)[C@H](CN)NC(=O)CSC[C@@H](C(=O)N[C@@H](C)C(N)=O)NC(=O)[C@H]([C@@H](C)O)NC(=O)[C@H](C(C)C)NC(=O)[C@H](CC2CCCCC2)NC(=O)[C@H](CCN)NC(=O)[C@@H](CC(C)C)NC(=O)[C@H](CCCN)NC1=O (stereo partly shown) [Compound 2241],32.4
11,C#CCC[C@@H]1NC(=O)[C@H](Cc2ccc(-c3ccccc3)cc2)NC(=O)[C@H](C(C)C)NC(=O)[C@H](Cc2cccc(C)c2)NC(=O)[C@H](CC(=O)O)NC(=O)[C@H](Cc2ccc(C(=O)O)cc2)NC(=O)[C@H](CN)NC(=O)CSC[C@@H](C(=O)N[C@@H](CCN)C(N)=O)NC(=O)[C@H]([C@@H](C)O)NC(=O)[C@H](C(C)C)NC(=O)[C@H](CC2CCCCC2)NC(=O)[C@H](CCN)NC(=O)[C@@H](CC(C)C)NC(=O)[C@H](CCCN)NC1=O [Compound 2023] ({CH2CO}-[Dap][Phe(4-COOH)]D[Phe(3-Me)]V[Bip][Hpra][Orn][dL][Dab][Cha]VTC[Dab]-NH2; thioether N-14),11.4
12,Cc1cccc(C[C@@H]2NC(=O)[C@H](CC(=O)O)NC(=O)[C@H](Cc3ccc(C(=O)O)cc3)NC(=O)[C@H](Cc3ccc(OCC(=O)O)cc3)NC(=O)CSC[C@@H](C(=O)N[C@@H](C)C(N)=O)NC(=O)[C@H]([C@@H](C)O)NC(=O)[C@H](C(C)C)NC(=O)[C@H](CC3CCCCC3)NC(=O)[C@H](CCN)NC(=O)[C@@H](CC(C)C)NC(=O)[C@H](CCCN)NC(=O)[C@H](CCC(=O)O)NC(=O)[C@H](Cc3ccc(-c4ccccc4)cc3)NC(=O)[C@H](C(C)C)NC2=O)c1 [Compound 1426],23.3
13,CC(C)C[C@@H]1NC(=O)[C@H](CCN)NC(=O)[C@@H](CC(C)C)NC(=O)[C@H](CCCN)NC(=O)[C@H](CCCNC(N)=O)NC(=O)[C@H](Cc2ccc(-c3ccccc3)cc2)NC(=O)[C@H](C(C)C)NC(=O)[C@H](Cc2c[nH]c3ccccc23)NC(=O)[C@H](CC(=O)O)NC(=O)[C@H](Cc2ccncc2)NC(=O)[C@H](Cc2ccc(OCC(=O)O)cc2)NC(=O)CSC[C@@H](C(=O)N[C@@H](C)C(N)=O)NC(=O)[C@H]([C@@H](C)O)NC(=O)[C@H](C(C)C)NC1=O [Compound 1323] ({CH2CO}-Y(Carboxymethyl)[4Pal]DWV[Bip][Cit][Orn][dL][Dab]LVTCA-NH2; thioether N-14),29.4
14,C#CC[C@H](NC(=O)[C@H](CCN)NC(=O)[C@@H]1CSCC(=O)N[C@@H]([C@@H](C)O)C(=O)N[C@@H](Cc2ccc(OCC(=O)O)cc2)C(=O)N[C@@H](CC(=O)O)C(=O)N[C@@H](Cc2cccc(C)c2)C(=O)N[C@@H](Cc2ccc(C(=O)O)cc2)C(=O)N[C@@H](Cc2ccc(-c3ccccc3)cc2)C(=O)N[C@@H](Cc2ccc(C(=O)O)cc2)C(=O)N[C@@H](CCCN)C(=O)N[C@H](CC(C)C)C(=O)N[C@@H](CCN)C(=O)N[C@@H](CC2CCCCC2)C(=O)N[C@@H](C(C)C)C(=O)N[C@@H](CCC(=O)O)C(=O)N1)C(=O)O [Compound 1824] ({CH2CO}-TY(Carboxymethyl)D[Phe(3-Me)][Phe(4-COOH)][Bip][Phe(4-COOH)][Orn][dL][Dab][Cha]VEC[Dab][Pra]-OH; thioether N-14),9.3
